Laboratory results as given in patent publication US20230192683A1, “FUSED RING COMPOUNDS, PREPARATION METHOD THEREFOR, PHARMACEUTICAL COMPOSITIONS AND USE THEREOF” (priority 2020, published 2023).

Experiments:
[1] = biological target: T1, human SSTR2 (Homo sapiens, UniProt P30874); assay: biochemical; settings: 25° C., 2 hours, Cheng-Prusoff; read-out: Binding Ki (nM) SSTR2
T1 construct: expressed in transfected cells; host or cells: CHO-K1 (membrane homogenates)
Description: Cell membranes were then filtered and washed, and protein-bound radioactivity was measured with a suitable instrument. The Ki values of corresponding targets were calculated using a Cheng-Prusoff formula.

[2] = pharmacokinetic evaluation in rats after oral and intravenous administration; assay type: in vivo; settings: Sprague-Dawley, rat, plasma, male SD rats, oral 10.0 mg/kg, intravenous 1.0 mg/kg, route and unit inferred
Description: Using rats as test animals, an LC/MS/MS method was used to determine the drug concentrations in plasma at different times after oral and intravenous administration of Compound 1a and Compound 14 in the rats. The pharmacokinetic behavior of the compounds of the present invention in rats was studied, and pharmacokinetic characteristics thereof were evaluated.
For each compound, 6 healthy adult SD (Sprague-Dawley) rats, male, were divided into oral and intravenous administration groups, 3 rats in each group, purchased from Shanghai SIPPR/BK Laboratory Animal Co., Ltd., animal production license number: SCXK (Shanghai) 2008-0016.
A specific amount of the drug was weighed and dissolved in 5% dimethylacetamide (DMA) + 5% polyethylene glycol-15 hydroxystearate (solutol) + 90% saline solution to prepare a 0.2 mg/mL solution.
The SD rats were fasted overnight and were administered orally and intravenously. The oral dose was 10.0 mg/kg, and the intravenous dose was 1.0 mg/kg.
Compound 1a and Compound 14 were administered orally and intravenously to the rats. At 0.083, 0.25, 0.5, 1, 2, 4, 8, and 24 hours after administration, 0.2 mL of blood was collected from the submandibular vein or other suitable blood vessels, placed in K2-EDTA tubes, and then stored on ice. Within one hour, the plasma was separated by centrifugation at 6,800 g for 6 minutes at 2-8° C., and stored at -80° C. for LC/MS/MS analysis. The rats were fed 4 hours after administration.

T1 sequence (P30874 whole entry): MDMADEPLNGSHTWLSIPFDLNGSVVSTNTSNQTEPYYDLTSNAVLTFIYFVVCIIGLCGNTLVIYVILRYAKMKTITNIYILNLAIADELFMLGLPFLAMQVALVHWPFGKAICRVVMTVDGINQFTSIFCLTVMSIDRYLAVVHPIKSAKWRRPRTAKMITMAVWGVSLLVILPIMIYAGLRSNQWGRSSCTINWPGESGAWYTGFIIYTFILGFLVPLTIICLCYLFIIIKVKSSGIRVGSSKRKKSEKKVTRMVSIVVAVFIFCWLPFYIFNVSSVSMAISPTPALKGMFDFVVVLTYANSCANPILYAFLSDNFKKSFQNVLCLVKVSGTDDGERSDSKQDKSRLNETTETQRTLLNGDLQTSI

With `CSc1cccc2c(C(C)(C)NC(=O)[C@H]3[C@@H]4CNC[C@@H]43)nn(C)c12` [Compound 14, (1R,5S,6R)-N-(2-(1-Methyl-7-(Methylthio)-1H-Indazol-3-yl)Prop-2-yl)-3-Azabicyclo[3.1.0]Hexane-6-Carboxamide] as the molecule, how does the Ki [1] read?
Its Ki is greater than 5310 nM.

And the half-life [2]?
Its half-life is 2.58 ± 0.5 h.

And the Vd ([2]; read-out: Apparent volume of distribution)?
The Vd was 7.09 ± 1.08 L/kg.

What about the clearance ([2]; read-out: Clearance rate) of the same molecule?
Its clearance is 48.7 ± 5.01 mL/min/kg.
